In patent US10828281B2, “Non-hydrophobic compounds for use in treating metastasis and/or cartilage defect” (Friedrich-Alexander-Universität Erlangen-Nürnberg, priority 2015, dated 2020):
Entries after “also recorded” stand apart in the source; their conditions may differ.

Columns and labels:
[1] = target: T1, MIA-MIA interaction (Homo sapiens, UniProt Q16674); assay: heterogeneous transition metal-based fluorescence polarization (HTFP) assay of MIA dimerization; format: binding; details: FIG. 3
T1 sequence (Q16674 25-131): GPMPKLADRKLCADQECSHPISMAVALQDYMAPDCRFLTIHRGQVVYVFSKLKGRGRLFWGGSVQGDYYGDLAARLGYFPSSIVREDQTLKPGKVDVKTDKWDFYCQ
Procedure: The dimerization of the MIA protein is for example measured by a heterogeneous transition metal-based fluorescence polarization (HTFP) assay, wherein the ratio P/P0 is measured. P is the fluorescence polarization signal of a MIA protein labeled with a transition metal complex in the presence of substrate bound MIA-protein and of a compound to be tested. P0 is the fluorescence polarization signal of free MIA-protein labeled with said luminescent transition metal complex in the absence of substrate bound MIA-protein and in the absence of the compound. In the absence of the compound, usually, the labeled MIA-protein would interact with the substrate bound MIA-protein, which, in turn, would contribute to a reduction in rotational mobility of the labeled MIA-protein, and therefore, the fluorescence polarization signal would increase upon such interaction. If, additionally, a compound is present that interferes with such interaction, no or little dimerization/aggregation occurs and no or little increase in fluorescence polarization signal would be detected. The smaller or even more negative P/P0 is, the stronger such interference with dimer formation and aggregation is, and the better such compound prevents or breaks up dimerization/aggregation of MIA protein. In an alternative embodiment, binding of the compound to MIA protein is determined by NMR, e.g., heteronuclear NMR, e.g., ^15N-^1H-HSQC-NMR.
All listed compounds that were screened for their ability to interfere with the MIA-MIA interaction (Table 1) in a heterogeneous transition metal-based fluorescence polarization (HTFP) assay previously developed (Riechers, A., et al., Heterogeneous transition metal-based fluorescence polarization (HTFP) assay for probing protein interactions. Biotechniques, 2009. 47(4): p. 837-44). […] The molecular structures of the compounds showing interference with the MIA-MIA interaction in the HTFP assay are shown in Table 1.

[2] = test system: human Mel-Im melanoma cells; assay: Boyden chamber migration assay; format: cell-based; details: compound 1 μM, MIA 200 ng/mL, FIG. 4
Procedure: The melanoma cell line Mel-Im, established from a human metastatic bioptic sample (generous gift from Dr. Johnson, University of Munich, Germany) was used for the Boyden chamber migration experiments. All cells were maintained in DMEM (PAA, Pasching, Germany) supplemented with penicillin (400 U/mL), streptomycin (50 μg/mL), L-glutamine (300 μg/mL) and 10% fetal calf serum (Pan Biotech GmbH, Aidenbach, Germany) and split in a 1:6 ratio every three days. Migration assays were performed in Boyden Chambers containing polycarbonate filters with […] (Neuro Probe, Gaithersburg, Md., USA) essentially as described. MIA was added to the cell suspension at a final concentration of 200 ng/mL. Selected compounds were used at a final concentration of 1 μM. Experiments were carried out in triplicates and repeated at least three times.

[3] = test system: human fibroblasts; assay: proliferation of human fibroblasts; format: cell-based; details: 7.8 μM, in vitro, FIG. 5A
Procedure: (§1) In order to assess whether compounds of the present invention show any adverse effects on normal cells, human fibroblasts and kidney cells were treated with the compounds 1, 2, 3, 4, 5, and 6, respectively, in vitro at a concentration of 7.8 μM in analogy to previous studies (Schmidt, J., et al., Targeting melanoma metastasis and immunosuppression with a new mode of melanoma inhibitory activity (MIA) protein inhibition. PLoS One, 2012. 7(5): p. e37941; Riechers, A., et al., Heterogeneous transition metal-based fluorescence polarization (HTFP) assay for probing protein interactions. Biotechniques, 2009. 47(4): p. 837-44).

[4] = test system: kidney cells HEK-293; assay: proliferation of kidney cells; format: cell-based, human; details: 7.8 μM, in vitro, HEK-293, FIG. 5C
Procedure: as §1

[5] = test system: human fibroblasts; assay: cellular attachment of human fibroblasts; format: cell-based; details: 7.8 μM, in vitro, FIG. 5B
Procedure: as §1

[6] = test system: kidney cells HEK-293; assay: cellular attachment of kidney cells; format: cell-based, human; details: 7.8 μM, in vitro, HEK-293, FIG. 5D
Procedure: as §1

[7] = test system: human melanoma cell line Mel Im; assay: proliferation of melanoma cell line Mel Im; format: cell-based; details: FIG. 6
[8] = target: T1, MIA-MIA interaction; details: disclosed in WO 2011/113604; cited from earlier work

| Compound | fluorescence polarization of Ru-(bpy)3 labelled MIA (interference with the MIA-MIA interaction) [1] | MIA activity on melanoma cell migration [2] | effect on proliferation of human fibroblasts [3] | effect on proliferation of kidney cells [4] | effect on cellular attachment of human fibroblasts [5] | effect on cellular attachment of kidney cells [6] | proliferation of the human melanoma cell line Mel Im after treatment [7] | blocking of the MIA-MIA interaction [8] |
| --- | --- | --- | --- | --- | --- | --- | --- | --- |
| CS(=O)(=O)NCC#CCN1CCc2ccccc2C1 [Compound 2, N-[4-(1,2,3,4-tetrahydroisoquinolin-2-yl)but-2-yn-1-yl]methanesulfonamide] | significant decreases | reduction; also recorded: inhibition | no negative effects | no negative effects | no negative effects | no negative effects | could not be found | – |
| CC(=O)c1c(C)cn(CC(O)CN2CCNCC2)c1C (stereo not shown) [Compound 4, 1-{1-[2-hydroxy-3-(piperazin-1-yl)propyl]-2,4-dimethyl-1H-pyrrol-3-yl}ethan-1-one] | significant decreases | reduction | no negative effects | no negative effects | no negative effects | no negative effects | could not be found | – |
| CCCCCNC(=O)Cc1cc(=O)[nH]c(=O)[nH]1 [Compound 3, 2-(2,6-dioxo-1,2,3,6-tetrahydropyrimidin-4-yl)-N-Pentylacetamide] | significant decreases | reduction; also recorded: inhibition | no negative effects | no negative effects | no negative effects | no negative effects | could not be found | – |
| CCC(C)N1CC(=O)C(c2nc3ccccc3[nH]2)=C1N (stereo not shown) [Compound 1, 5-amino-4-(1H-1,3-benzodiazol-2-yl)-1-(butan-2-yl)-2,3-dihydro-1H-pyrrol-3-one] | significant decreases | reduction; also recorded: inhibition | no negative effects | no negative effects | no negative effects | no negative effects | significant decrease; also recorded: inhibition | – |
| CCCCNC(=O)c1c(O)nc2c(C)cccn2c1=O [Compound 6, N-butyl-2-hydroxy-9-methyl-4-oxo-4H-pyrido[1,2-a]pyrimidine-3-carboxamide] | significant decreases | reduction | no negative effects | no negative effects | no negative effects | no negative effects | could not be found | – |
| AR71: a peptide having the amino acid sequence FHWRYPLPLPGQ (SEQ ID NO:1) | – | – | – | – | – | – | – | able to block the MIA-MIA interaction |
| COc1ccc2[nH]c(CN3CCNCC3)nc2c1 [Compound 5, 5-methoxy-2-(piperazin-1-ylmethyl)-1H-1,3-Benzodiazole] | significant decreases | reduction | no negative effects | no negative effects | no negative effects | no negative effects | could not be found | – |
